According to ChEMBL document CHEMBL1201862, “PubChem BioAssay data set” (2004):
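Step 1: Grow cells in 96-well plates. Step 2: Expose to compound for 48 hours at 5 concentrations. Step 3: Interpolate endpoints linearly; if unreached, use highest concentration. GI50 = concentration required for 50% inhibition of growth.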 Active and inactive are the calls of the source. Cut-off read from the data, not from the text of the source: active = GI50 up to about 1.1 µM and inactive = higher.

Key:
Assay in all cases: NCI-60 cell line screen, 48 h
[1] = test system: RXF 393
[2] = test system: SW-620
[3] = test system: A549
[4] = test system: LOX IMVI
[5] = test system: DU-145
[6] = test system: UACC-257
[7] = test system: NCI/ADR-RES
[8] = test system: UACC-62
[9] = test system: MDA-N
[10] = test system: MDA-MB-435
[11] = test system: ACHN
[12] = test system: OVCAR-4
[13] = test system: SK-MEL-2
[14] = test system: OVCAR-3
[15] = test system: NCI-H522
[16] = test system: 786-0
[17] = test system: UO-31
[18] = test system: HT-29
[19] = test system: SR
[20] = test system: T47D

| Structure (SMILES) | GI50 [1] | GI50 [2] | GI50 [3] | GI50 [4] | GI50 [5] | GI50 [6] | GI50 [7] | GI50 [8] | GI50 [9] | GI50 [10] | GI50 [11] | GI50 [12] | GI50 [13] | GI50 [14] | GI50 [15] | GI50 [16] | GI50 [17] | GI50 [18] | GI50 [19] | GI50 [20] |
| --- | --- | --- | --- | --- | --- | --- | --- | --- | --- | --- | --- | --- | --- | --- | --- | --- | --- | --- | --- | --- |
| NC(=O)NC(=O)c1cnccn1 | > 100 µM (inactive) | > 100 µM (inactive) | > 100 µM (inactive) | > 100 µM (inactive) | > 100 µM (inactive) | > 100 µM (inactive) | > 100 µM (inactive) | > 100 µM (inactive) | > 100 µM (inactive) | > 100 µM (inactive) | > 100 µM (inactive) | > 100 µM (inactive) | > 100 µM (inactive) | > 100 µM (inactive) | > 100 µM (inactive) | > 100 µM (inactive) | > 100 µM (inactive) |  |  |  |
| COc1cccc2c1OC(c1ccc(C#N)cc1)C([N+](=O)[O-])=C2 (centres undefined) | 1.58 µM (inactive) | 1.42 µM (inactive) | 2.56 µM (inactive) | 1.91 µM (inactive) | 3.12 µM (inactive) | 1.38 µM (inactive) | > 100 µM (inactive) | 1.6 µM (inactive) | 1.52 µM (inactive) | 1.39 µM (inactive) | 1.77 µM (inactive) | 1.68 µM (inactive) | 2.01 µM (inactive) | 2.02 µM (inactive) | 0.214 µM (active) | 0.482 µM (active) | 1.64 µM (inactive) | 1.72 µM (inactive) | 0.778 µM (active) |  |
| COC1(OC)C=CC2C1C1C=CC2C1(OC)OC (centres undefined) | > 100 µM (inactive) | > 100 µM (inactive) | > 100 µM (inactive) | > 100 µM (inactive) | > 100 µM (inactive) | > 100 µM (inactive) | > 100 µM (inactive) | > 100 µM (inactive) |  | > 100 µM (inactive) | > 100 µM (inactive) | > 100 µM (inactive) | > 100 µM (inactive) | > 100 µM (inactive) | > 100 µM (inactive) | > 100 µM (inactive) | > 100 µM (inactive) | > 100 µM (inactive) | > 100 µM (inactive) | > 100 µM (inactive) |
| O=C(CNc1c(Cl)cccc1Cl)NC1C=Cc2ccc(S(=O)(=O)Nc3c(Cl)cccc3Cl)cc2C1=O (centres undefined) |  | > 100 µM (inactive) | > 100 µM (inactive) | 88.7 µM (inactive) | > 100 µM (inactive) | > 100 µM (inactive) | > 100 µM (inactive) | 79.6 µM (inactive) | > 100 µM (inactive) | > 100 µM (inactive) | > 100 µM (inactive) | > 100 µM (inactive) | 56.8 µM (inactive) | 42.5 µM (inactive) | 30.5 µM (inactive) | > 100 µM (inactive) | 26.9 µM (inactive) | 50.2 µM (inactive) | > 100 µM (inactive) |  |
| C=C1C(=O)OC2/C=C(\C)C(O)/C=C\C(C)(O)CC(OC(=O)/C(C)=C/C)C12 (centres undefined) | 18 µM (inactive) | 17.3 µM (inactive) | > 100 µM (inactive) | 16.2 µM (inactive) |  | 27.2 µM (inactive) |  | 17.1 µM (inactive) |  |  | 22.4 µM (inactive) | 44.6 µM (inactive) | 19.7 µM (inactive) | 9.93 µM (inactive) | 12.8 µM (inactive) | 20.8 µM (inactive) | > 70.1 µM (inactive) | 33.1 µM (inactive) | 11.7 µM (inactive) |  |
| O=C1c2ccc3c4ccccc4n(Cc4ccccc4)c3c2C(=O)N1c1ccccc1 | 12.7 µM (inactive) | 5.98 µM (inactive) | 17.3 µM (inactive) | 16.2 µM (inactive) |  | 15.8 µM (inactive) |  | 17.3 µM (inactive) |  |  | > 35.7 µM (inactive) | 8.3 µM (inactive) | 22.9 µM (inactive) | 5.5 µM (inactive) | 2.62 µM (inactive) | 13.8 µM (inactive) | 16.5 µM (inactive) | 16.4 µM (inactive) | 5.61 µM (inactive) |  |
| CCOC(=O)C1OC(=O)CC1C1(C(=O)OCC)C=CC(=O)O1 (centres undefined) | > 100 µM (inactive) | > 100 µM (inactive) | > 100 µM (inactive) | 14.2 µM (inactive) | > 100 µM (inactive) | > 100 µM (inactive) | > 100 µM (inactive) | > 100 µM (inactive) | > 100 µM (inactive) |  | > 100 µM (inactive) | > 100 µM (inactive) | > 100 µM (inactive) | > 100 µM (inactive) | > 100 µM (inactive) | > 100 µM (inactive) | > 100 µM (inactive) | > 100 µM (inactive) | > 100 µM (inactive) |  |
| CC(=O)OCC1OC(c2nnc(C)o2)=CC(OC(C)=O)C1OC(C)=O (centres undefined) | > 100 µM (inactive) | > 100 µM (inactive) | > 100 µM (inactive) | > 100 µM (inactive) | > 100 µM (inactive) | > 100 µM (inactive) | > 100 µM (inactive) |  | > 100 µM (inactive) | > 100 µM (inactive) | > 100 µM (inactive) | > 100 µM (inactive) |  | > 100 µM (inactive) | > 100 µM (inactive) | > 100 µM (inactive) | > 100 µM (inactive) | > 100 µM (inactive) | > 100 µM (inactive) |  |
| O=C(NC(Cc1c[nH]c2ccccc12)C(=O)Nc1ccc(Br)cc1)OCc1ccccc1 (centres undefined) | 9.33 µM (inactive) | 16 µM (inactive) | 9.16 µM (inactive) | 9.06 µM (inactive) | 13.3 µM (inactive) | 11.3 µM (inactive) | 12.1 µM (inactive) | 10.1 µM (inactive) |  | 8.83 µM (inactive) | 10.2 µM (inactive) | 9.14 µM (inactive) | 6.56 µM (inactive) | 11.6 µM (inactive) | 10.1 µM (inactive) | 10.8 µM (inactive) | 9.1 µM (inactive) | 6.19 µM (inactive) | 6.95 µM (inactive) | 10 µM (inactive) |
| CC(C)(C)N/C(N)=N/C#N | > 100 µM (inactive) | > 100 µM (inactive) | > 100 µM (inactive) | > 100 µM (inactive) | > 100 µM (inactive) | > 100 µM (inactive) | > 100 µM (inactive) | > 100 µM (inactive) | > 100 µM (inactive) | > 100 µM (inactive) | > 100 µM (inactive) | > 100 µM (inactive) | > 100 µM (inactive) |  |  | > 100 µM (inactive) | > 100 µM (inactive) | > 100 µM (inactive) | > 100 µM (inactive) |  |
| O=C(NCc1ccc2ccc3cccnc3c2n1)c1ccc[n+](Cc2ccccc2)c1 | > 100 µM (inactive) | > 100 µM (inactive) | > 100 µM (inactive) | > 100 µM (inactive) |  | > 100 µM (inactive) |  | > 100 µM (inactive) |  |  | > 100 µM (inactive) | > 100 µM (inactive) | > 100 µM (inactive) | 55.6 µM (inactive) | > 100 µM (inactive) | > 100 µM (inactive) | > 100 µM (inactive) | 98.6 µM (inactive) | > 100 µM (inactive) |  |
| COc1ccc(/C=C2\S/C(=N/Nc3nc(-c4ccccc4)cs3)NC2=O)cc1OC | 4.5 µM (inactive) | 30.3 µM (inactive) | 20.9 µM (inactive) | 23.3 µM (inactive) | 34 µM (inactive) | 33.3 µM (inactive) | 20.7 µM (inactive) | 23.6 µM (inactive) | 15.4 µM (inactive) | 25.7 µM (inactive) | 24.7 µM (inactive) | 27.2 µM (inactive) | 19.1 µM (inactive) | 15.9 µM (inactive) | 18.5 µM (inactive) | 28.4 µM (inactive) | 15.6 µM (inactive) |  |  |  |
| O=C(Nc1ccc(C(F)(F)F)cc1[N+](=O)[O-])C(=O)C1NC(=S)NC1=O (centres undefined) | > 100 µM (inactive) | > 100 µM (inactive) | > 100 µM (inactive) | > 100 µM (inactive) |  | > 100 µM (inactive) |  | > 100 µM (inactive) |  |  | > 100 µM (inactive) | > 100 µM (inactive) | > 100 µM (inactive) | > 100 µM (inactive) | > 100 µM (inactive) | > 100 µM (inactive) | > 100 µM (inactive) | > 100 µM (inactive) | > 100 µM (inactive) |  |
| COC(=O)N[C@H](C(=O)O)C(C)O[Si](C)(C)C(C)(C)C (some centres undefined) | > 100 µM (inactive) | > 100 µM (inactive) | > 100 µM (inactive) | > 100 µM (inactive) | > 100 µM (inactive) | > 100 µM (inactive) | > 100 µM (inactive) | > 100 µM (inactive) |  | > 100 µM (inactive) | > 100 µM (inactive) | > 100 µM (inactive) |  | 7.08 µM (inactive) | > 100 µM (inactive) | > 100 µM (inactive) | > 100 µM (inactive) | > 100 µM (inactive) | > 100 µM (inactive) | > 100 µM (inactive) |
| C[N+](C)(C)CC(=O)N/N=C(\C(=O)NC1=C(Cl)C(=O)c2ccccc2C1=O)C(C#N)c1csc(-c2ccc([N+](=O)[O-])cc2)n1 (centres undefined) | > 100 µM (inactive) | > 100 µM (inactive) | > 100 µM (inactive) | > 100 µM (inactive) |  | > 100 µM (inactive) |  | > 100 µM (inactive) |  |  | > 100 µM (inactive) | > 100 µM (inactive) | > 100 µM (inactive) | > 100 µM (inactive) | > 100 µM (inactive) | > 100 µM (inactive) | > 100 µM (inactive) | > 100 µM (inactive) | 80.5 µM (inactive) |  |
| CN1C(=O)CSC1=S [3-METHYL-RHODANINE] | > 100 µM (inactive) | > 100 µM (inactive) | > 100 µM (inactive) | > 100 µM (inactive) |  | > 100 µM (inactive) |  | > 100 µM (inactive) |  |  | > 100 µM (inactive) | > 100 µM (inactive) | > 100 µM (inactive) | > 100 µM (inactive) | > 100 µM (inactive) | > 100 µM (inactive) | > 100 µM (inactive) | > 100 µM (inactive) | > 100 µM (inactive) |  |
